In PMC10202811 (Nature Medicine, 2023):
Where “and” joins values, the source holds several entries; their conditions need not be identical. Equal values may be shown once. Marks after values point to notes of the source that are not given here.

Experiment: Toxicity assessment (CTCAE version 4): treatment-related AEs, DLTs, dose reductions, RP2D; phase 1 NANT2015-02
Description: Five DLs (45, 60, 75, 95 and 115 mg/m^2/dose) were assessed in A1, using a 3 + 3 design. […] Myeloid growth factor was given 24 hours after the completion of topotecan/cyclophosphamide on B2, according to institutional standards. Instructions and hands-on training for a tablet dispersion formulation, validated by Pfizer, was provided to families of patients who could not swallow tablets.
Initially, this was the only DL planned, but, with a subsequent amendment, a second DL was added to cohort A2 (150 mg). […] Finally, because of the nature of the patients in cohort A2 (which had only two planned DLs), an expansion of up to six additional patients was planned for the highest DL tested with zero or one DLT in six DLT-evaluable patients. Accrual could continue in the expansion cohort as long as none, or at most one, of the patients experienced DLT in the DLT observation period; if two or more patients experienced DLT in the DLT observation period, this would lead to a discussion of the suitability of this dose. The probability of observing […] with DLT, out of six patients, is 0.11, 0.22, 0.47, 0.68 and 0.77 when the true probability of DLT is 0.10, 0.15, 0.25, 0.35 and 0.40, respectfully.
Patients who were not evaluable for DLT were replaced for dose-escalation purposes. […] The MTD was defined as the highest DL tested at which zero of six or one of six patients experience DLT. After determination of the MTD and review of all toxicities, and provided that other safety considerations were acceptable, the MTD was labeled the RP2D.
Toxicity was graded according to CTCAE version 4. DLT definitions included only toxicities deemed at least possibly related to therapy. For A1 and A2, hematologic DLT was defined as grade 4 thrombocytopenia or grade 4 neutropenia >7-day duration or a delay in the start of subsequent course by more than 14 days due to ongoing thrombocytopenia or neutropenia, in the absence of bone marrow disease progression seen on clinically indicated bone marrow biopsy (if performed). For cohort B2, hematological DLT is defined as a delay in the start of subsequent course by more than 14 days due to ongoing thrombocytopenia or neutropenia, in the absence of bone marrow disease progression seen on clinically indicated bone marrow biopsy after the first dose reduction of cyclophosphamide and topotecan. Non-hematologic DLT was defined as any non-hematologic toxicity that delayed the start of a subsequent cycle by more than 14 days or any grade ≥3 toxicity, with the exception of the following grade 3 toxicities: nausea, vomiting, anorexia or dehydration resolving to grade ≤2 within 72 hours; increase in hepatic transaminase or electrolyte abnormality resolving eligibility levels within 7 days; diarrhea persisting for less than 72 hours; fever; infection; febrile neutropenia; high cholesterol or triglycerides if responsive (to ≤grade 2) with statin treatment; weight gain; and hyperglycemia if responsive (to <grade 2) with dietary modification.

[1] = Cohort A1, one line per patient (PID)
[2] = Cohort A2, neurotoxicity, one line per patient (PID)
[3] = Cohort A2, one line per patient (PID)
[4] = patients <18 years, single agent
[5] = single-agent lorlatinib across all ages, grade 1–4 treatment-related

Q: With `C[C@H]1Oc2cc(cnc2N)-c2c(nn(C)c2C#N)CN(C)C(=O)c2ccc(F)cc21` [Lorlatinib, (10R)-7-amino-12-fluoro-2,10,16-trimethyl-15-oxo-10,15,16,17-tetrahydro-2H-8,4-(metheno)pyrazolo[4,3-h][2,5,11]-benzoxadiazacyclotetradecine-3-carbonitrile] as the compound, how does the “Nausea: Toxicity Maximum Grade per patient” value [1] read?
A: The value was 1.

Q: And the “Neutrophil count decreased: Toxicity Maximum Grade per patient” value [1]?
A: Its value is 2.

Q: And the “Peripheral sensory neuropathy: Toxicity Maximum Grade per patient” value [1]?
A: Its value is 2 and 1.

Q: What about the “Platelet count decreased: Toxicity Maximum Grade per patient” value [1] of the same compound?
A: Its value is 1.

Q: And the “Tinnitus: Toxicity Maximum Grade per patient” value [1]?
A: The value was 1.

Q: What about the “Vomiting: Toxicity Maximum Grade per patient” value [1] of the same compound?
A: The value was 1.

Q: What about the “Weight gain: Toxicity Maximum Grade per patient” value [1] of the same compound?
A: Its value is 2 and 3 and 1.

Q: What about the “White blood cell decreased: Toxicity Maximum Grade per patient” value [1] of the same compound?
A: Its value is 1 and 3.

Q: What about the “Patients with DLT in course 1” value (Cohort A2, 100 mg) of the same compound?
A: The value was 0.

Q: What about the “Patients with DLT in course 2” value (Cohort A2, 100 mg) of the same compound?
A: Its value is 0.

Q: What about the “Patients with DLT in other courses” value (Cohort A2, 100 mg) of the same compound?
A: The value was 2^c.

Q: And the “Patients with DLT in course 1” value (Cohort A2, 150 mg)?
A: The value was 1^d.

Q: What about the “Patients with DLT in course 2” value (Cohort A2, 150 mg) of the same compound?
A: The value was 2^e,f.

Q: What about the “Patients with DLT in other courses” value (Cohort A2, 150 mg) of the same compound?
A: Its value is 3^e,f,g.

Q: And the “Toxicity Maximum Grade per patient: Sinus tachycardia” value (Cohort A2, patient PID 8, CTCAE grade)?
A: Its value is 1.

Q: What about the Neutrophil count decreased (Cohort A2, grade 1-2, 3, 4 in c8-c10) of the same compound?
A: Its Neutrophil count decreased is 0 (0) n (%).

Q: And the “Hypersomnia (CNS effect)” value (Cohort A2, grade 1-4 in c5-c8)?
A: Its value is 0 (0).

Q: What about the “Agitation: Toxicity Maximum Grade per patient” value [2] of the same compound?
A: The value was 4 and 3 and 1.

Q: What about the “Anxiety: Toxicity Maximum Grade per patient” value [2] of the same compound?
A: Its value is 4 and 3 and 2 and 1.

Q: And the “Cognitive disturbance: Toxicity Maximum Grade per patient” value [2]?
A: Its value is 1 and 2.

Q: And the “Concentration impairment: Toxicity Maximum Grade per patient” value [2]?
A: The value was 1 and 2 and 3.

Q: And the “Depression: Toxicity Maximum Grade per patient” value [2]?
A: Its value is 1 and 3.

Q: And the “Hallucinations: Toxicity Maximum Grade per patient” value [2]?
A: The value was 1 and 4.

Q: What about the “Headache: Toxicity Maximum Grade per patient” value [2] of the same compound?
A: Its value is 1.

Q: And the “Memory impairment: Toxicity Maximum Grade per patient” value [2]?
A: Its value is 1 and 2 and 3.

Q: And the “Alanine aminotransferase increased: Toxicity Maximum Grade per patient” value [3]?
A: Its value is 1 and 2.

Q: What about the “Alkaline phosphatase increased: Toxicity Maximum Grade per patient” value [3] of the same compound?
A: The value was 1.

Q: What about the “Anemia: Toxicity Maximum Grade per patient” value [3] of the same compound?
A: The value was 3 and 1 and 2.

Q: What about the “Aspartate aminotransferase increased: Toxicity Maximum Grade per patient” value [3] of the same compound?
A: The value was 1 and 2.

Q: What about the “Cholesterol high: Toxicity Maximum Grade per patient” value [3] of the same compound?
A: The value was 2 and 3 and 1.

Q: What about the “Creatinine increased: Toxicity Maximum Grade per patient” value [3] of the same compound?
A: Its value is 1 and 2.

Q: What about the “Diarrhea: Toxicity Maximum Grade per patient” value [3] of the same compound?
A: The value was 2 and 1.

Q: And the “Edema limbs: Toxicity Maximum Grade per patient” value [3]?
A: Its value is 1 and 2.

Q: What about the “Electrocardiogram QT corrected interval prolonged: Toxicity Maximum Grade per patient” value [3] of the same compound?
A: The value was 1.

Q: What about the “Fatigue: Toxicity Maximum Grade per patient” value [3] of the same compound?
A: The value was 1.

Q: And the “Flatulence: Toxicity Maximum Grade per patient” value [3]?
A: Its value is 1.

Q: What about the “Gastroesophageal reflux disease: Toxicity Maximum Grade per patient” value [3] of the same compound?
A: The value was 2 and 1.

Q: And the “Hyperglycemia: Toxicity Maximum Grade per patient” value [3]?
A: The value was 1 and 3.

Q: What about the “Hypertriglyceridemia: Toxicity Maximum Grade per patient” value [3] of the same compound?
A: Its value is 3 and 2 and 1.

Q: And the “INCREASED APPETITE: Toxicity Maximum Grade per patient” value [3]?
A: The value was 1 and 2.

Q: And the “Irritability: Toxicity Maximum Grade per patient” value [3]?
A: Its value is 4.

Q: And the “Lymphocyte count decreased: Toxicity Maximum Grade per patient” value [3]?
A: The value was 4 and 1.

Q: And the “Nausea: Toxicity Maximum Grade per patient” value [3]?
A: The value was 1 and 2.

Q: And the “Peripheral sensory neuropathy: Toxicity Maximum Grade per patient” value [3]?
A: The value was 3 and 2 and 1.

Q: What about the “Platelet count decreased: Toxicity Maximum Grade per patient” value [3] of the same compound?
A: Its value is 1 and 2.

Q: What about the “Tinnitus: Toxicity Maximum Grade per patient” value [3] of the same compound?
A: The value was 1.

Q: What about the “Vomiting: Toxicity Maximum Grade per patient” value [3] of the same compound?
A: Its value is 1.

Q: And the “Weight gain: Toxicity Maximum Grade per patient” value [3]?
A: The value was 2 and 1 and 3.

Q: What about the “White blood cell decreased: Toxicity Maximum Grade per patient” value [3] of the same compound?
A: The value was 1 and 2.

Q: What about the “Patients with DLT in course 1” value (Cohort B2, DL4 (95 mg/m^2)) of the same compound?
A: The value was 0.

Q: And the “Patients with DLT in course 2” value (Cohort B2, DL4 (95 mg/m^2))?
A: Its value is 0.

Q: What about the “Patients with DLT in other courses” value (Cohort B2, DL4 (95 mg/m^2)) of the same compound?
A: The value was 0.

Q: What about the “Patients with DLT in course 1” value (Cohort B2, DL5 (115 mg/m^2)) of the same compound?
A: The value was 0.

Q: What about the “Patients with DLT in course 2” value (Cohort B2, DL5 (115 mg/m^2)) of the same compound?
A: Its value is 0.

Q: What about the “Patients with DLT in other courses” value (Cohort B2, DL5 (115 mg/m^2)) of the same compound?
A: The value was 1^h.

Q: And the “Amnesia (CNS effect)” value (Cohort B2, grade 1-4 in c9-c12)?
A: The value was 0 (0).

Q: What about the “Delirium (CNS effect)” value (Cohort B2, grade 1-4 in c9-c12) of the same compound?
A: The value was 0 (0).

Q: And the “Delusions (CNS effect)” value (Cohort B2, grade 1-4 in c9-c12)?
A: The value was 0 (0).

Q: What about the “Depressed level of consciousness (CNS effect)” value (Cohort B2, grade 1-4 in c9-c12) of the same compound?
A: Its value is 0 (0).

Q: What about the “Dizziness (CNS effect)” value (Cohort B2, grade 1-4 in c9-c12) of the same compound?
A: The value was 0 (0).

Q: What about the “Dysarthria (CNS effect)” value (Cohort B2, grade 1-4 in c9-c12) of the same compound?
A: Its value is 0 (0).

Q: And the “Euphoria (CNS effect)” value (Cohort B2, grade 1-4 in c9-c12)?
A: The value was 0 (0).

Q: What about the “Mania (CNS effect)” value (Cohort B2, grade 1-4 in c9-c12) of the same compound?
A: The value was 0 (0).

Q: And the “Paresthesia (CNS effect)” value (Cohort B2, grade 1-4 in c9-c12)?
A: The value was 0 (0).

Q: What about the “Psychosis (CNS effect)” value (Cohort B2, grade 1-4 in c9-c12) of the same compound?
A: Its value is 0 (0).

Q: What about the “Restlessness (CNS effect)” value (Cohort B2, grade 1-4 in c9-c12) of the same compound?
A: The value was 0 (0).

Q: What about the “Stuttering (CNS effect)” value (Cohort B2, grade 1-4 in c9-c12) of the same compound?
A: Its value is 0 (0).

Q: And the “Suicidal ideation (CNS effect)” value (Cohort B2, grade 1-4 in c9-c12)?
A: Its value is 0 (0).

Q: What about the “incidence of peripheral neuropathy” value (adults, single agent) of the same compound?
A: Its value is 27%.

Q: What about the RP2D (in combination with topotecan/cyclophosphamide, patients <18 years, daily (DL5)) of the same compound?
A: Its RP2D is 115 mg/m^2.

Q: And the “hypertriglyceridemia, patients with AE” value (lorlatinib combined with topotecan/cyclophosphamide, <18 years)?
A: The value was 89%.

Q: What about the “Grade 1–2 peripheral limb edema” value [4] of the same compound?
A: The value was 4%.

Q: What about the “incidence of peripheral neuropathy” value [4] of the same compound?
A: The value was 13%.

Q: And the “Grade 1–2 peripheral limb edema” value (patients ≥18 years, single agent)?
A: The value was 47%.

Q: And the “RP2D <18 years relative to the adult RP2D” value (single agent, 115 mg/m^2/dose daily)?
A: Its value is “approximately 200%”.

Q: And the RP2D (single agent, patients <18 years, daily (DL5))?
A: Its RP2D is 115 mg/m^2.

Q: And the RP2D (single agent, patients ≥18 years, daily)?
A: Its RP2D is 150 mg.

Q: And the “hypercholesterolemia / elevated cholesterol, patients with AE” value [5]?
A: Its value is 79%.

Q: What about the “hypertriglyceridemia, patients with AE” value [5] of the same compound?
A: The value was 90%.

Q: What about the “weight gain, patients with AE” value [5] of the same compound?
A: The value was 87%.

Q: What about the “patients developing grade 2–4 CNS effects” value (≥18 years (cohort A2), four of 15) of the same compound?
A: The value was 27%.

Q: What about the “patients requiring dose reduction due to toxicities” value (≥18 years, 150 mg (n = 10)) of the same compound?
A: The value was 50%.
